Patent publication US8192962B2, “Processes for detecting toxic substances” (Daikin Industries, Ltd., priority 2001, dated 2012)

System: Stress protein genes
Experiment: DNA chip mRNA expression in yeast, stress protein genes (Table 6)
Type: cell-based, Saccharomyces cerevisiae S288C
Summary of the method: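 Chemical exposure: 2 h, log-phase S. cerevisiae S288C, YPD, 25° C., dose set to inhibit growth without death. Profiling: mRNA labeled by reverse transcription with Cy3- or Cy5-dUTP, hybridized to whole-genome array. Output: fluorescence ratio against untreated culture.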

## N#Cc1c(Cl)c(Cl)c(Cl)c(C#N)c1Cl [(9), 2,4,5,6-tetrachloro-1,3-benzenedicarbonitrile]
Yeast gene YAL005C
  The level of expressed mRNA in the presence of chemical substance/The level of expressed mRNA in the absence of chemical substance: 3.9
Yeast gene YAL015C
  The level of expressed mRNA in the presence of chemical substance/The level of expressed mRNA in the absence of chemical substance: 4.0
Yeast gene YBL075C
  The level of expressed mRNA in the presence of chemical substance/The level of expressed mRNA in the absence of chemical substance: 60.3
Yeast gene YBL093C
  The level of expressed mRNA in the presence of chemical substance/The level of expressed mRNA in the absence of chemical substance: 0.7
Yeast gene YBR044C
  The level of expressed mRNA in the presence of chemical substance/The level of expressed mRNA in the absence of chemical substance: 0.8
Yeast gene YBR054W
  The level of expressed mRNA in the presence of chemical substance/The level of expressed mRNA in the absence of chemical substance: 0.4
Yeast gene YBR067C
  The level of expressed mRNA in the presence of chemical substance/The level of expressed mRNA in the absence of chemical substance: 1.7
Yeast gene YBR072W
  The level of expressed mRNA in the presence of chemical substance/The level of expressed mRNA in the absence of chemical substance: 29.4
Yeast gene YBR126C
  The level of expressed mRNA in the presence of chemical substance/The level of expressed mRNA in the absence of chemical substance: 1.7
Yeast gene YBR169C
  The level of expressed mRNA in the presence of chemical substance/The level of expressed mRNA in the absence of chemical substance: 7.0
Yeast gene YCL035C
  The level of expressed mRNA in the presence of chemical substance/The level of expressed mRNA in the absence of chemical substance: 1.9
Yeast gene YCR021C
  The level of expressed mRNA in the presence of chemical substance/The level of expressed mRNA in the absence of chemical substance: 2.2
Yeast gene YCR060W
  The level of expressed mRNA in the presence of chemical substance/The level of expressed mRNA in the absence of chemical substance: 0.7
Yeast gene YCR083W
  The level of expressed mRNA in the presence of chemical substance/The level of expressed mRNA in the absence of chemical substance: 1.8
Yeast gene YDL022W
  The level of expressed mRNA in the presence of chemical substance/The level of expressed mRNA in the absence of chemical substance: 1.2
Yeast gene YDL025C
  The level of expressed mRNA in the presence of chemical substance/The level of expressed mRNA in the absence of chemical substance: 3.6
Yeast gene YDR033W
  The level of expressed mRNA in the presence of chemical substance/The level of expressed mRNA in the absence of chemical substance: 0.3
Yeast gene YDR077W
  The level of expressed mRNA in the presence of chemical substance/The level of expressed mRNA in the absence of chemical substance: 0.7
Yeast gene YDR098C
  The level of expressed mRNA in the presence of chemical substance/The level of expressed mRNA in the absence of chemical substance: 3.7
Yeast gene YDR155C
  The level of expressed mRNA in the presence of chemical substance/The level of expressed mRNA in the absence of chemical substance: 1.3
Yeast gene YDR258C
  The level of expressed mRNA in the presence of chemical substance/The level of expressed mRNA in the absence of chemical substance: 4.9
Yeast gene YDR293C
  The level of expressed mRNA in the presence of chemical substance/The level of expressed mRNA in the absence of chemical substance: 1.2
Yeast gene YDR436W
  The level of expressed mRNA in the presence of chemical substance/The level of expressed mRNA in the absence of chemical substance: 3.5
Yeast gene YDR513W
  The level of expressed mRNA in the presence of chemical substance/The level of expressed mRNA in the absence of chemical substance: 4.6
Yeast gene YDR519W
  The level of expressed mRNA in the presence of chemical substance/The level of expressed mRNA in the absence of chemical substance: 0.5
Yeast gene YEL030W
  The level of expressed mRNA in the presence of chemical substance/The level of expressed mRNA in the absence of chemical substance: 2.3
Yeast gene YEL039C
  The level of expressed mRNA in the presence of chemical substance/The level of expressed mRNA in the absence of chemical substance: 1.2
Yeast gene YER042W
  The level of expressed mRNA in the presence of chemical substance/The level of expressed mRNA in the absence of chemical substance: 6.8
Yeast gene YER057C
  The level of expressed mRNA in the presence of chemical substance/The level of expressed mRNA in the absence of chemical substance: 0.6
Yeast gene YER103W
  The level of expressed mRNA in the presence of chemical substance/The level of expressed mRNA in the absence of chemical substance: 20.3
Yeast gene YER125W
  The level of expressed mRNA in the presence of chemical substance/The level of expressed mRNA in the absence of chemical substance: 0.6
Yeast gene YFL014W
  The level of expressed mRNA in the presence of chemical substance/The level of expressed mRNA in the absence of chemical substance: 13.1
Yeast gene YFL016C
  The level of expressed mRNA in the presence of chemical substance/The level of expressed mRNA in the absence of chemical substance: 6.4
Yeast gene YFL020C
  The level of expressed mRNA in the presence of chemical substance/The level of expressed mRNA in the absence of chemical substance: 1.3
Yeast gene YFR052W
  The level of expressed mRNA in the presence of chemical substance/The level of expressed mRNA in the absence of chemical substance: 3.7
Yeast gene YGL073W
  The level of expressed mRNA in the presence of chemical substance/The level of expressed mRNA in the absence of chemical substance: 1.9
Yeast gene YGL115W
  The level of expressed mRNA in the presence of chemical substance/The level of expressed mRNA in the absence of chemical substance: 1.2
Yeast gene YGL181W
  The level of expressed mRNA in the presence of chemical substance/The level of expressed mRNA in the absence of chemical substance: 2.7
Yeast gene YGR088W
  The level of expressed mRNA in the presence of chemical substance/The level of expressed mRNA in the absence of chemical substance: 1.5
Yeast gene YHL028W
  The level of expressed mRNA in the presence of chemical substance/The level of expressed mRNA in the absence of chemical substance: 0.2
Yeast gene YHL046C
  The level of expressed mRNA in the presence of chemical substance/The level of expressed mRNA in the absence of chemical substance: 1.0
Yeast gene YHR030C
  The level of expressed mRNA in the presence of chemical substance/The level of expressed mRNA in the absence of chemical substance: 0.6
Yeast gene YHR057C
  The level of expressed mRNA in the presence of chemical substance/The level of expressed mRNA in the absence of chemical substance: 2.6
Yeast gene YHR104W
  The level of expressed mRNA in the presence of chemical substance/The level of expressed mRNA in the absence of chemical substance: 4.8
Yeast gene YIL011W
  The level of expressed mRNA in the presence of chemical substance/The level of expressed mRNA in the absence of chemical substance: 0.0
Yeast gene YIL033C
  The level of expressed mRNA in the presence of chemical substance/The level of expressed mRNA in the absence of chemical substance: 2.4
Yeast gene YIR037W
  The level of expressed mRNA in the presence of chemical substance/The level of expressed mRNA in the absence of chemical substance: 6.2
Yeast gene YIR038C
  The level of expressed mRNA in the presence of chemical substance/The level of expressed mRNA in the absence of chemical substance: 4.6
Yeast gene YJL128C
  The level of expressed mRNA in the presence of chemical substance/The level of expressed mRNA in the absence of chemical substance: 2.0
Yeast gene YJL158C
  The level of expressed mRNA in the presence of chemical substance/The level of expressed mRNA in the absence of chemical substance: 0.2
Yeast gene YJL159W
  The level of expressed mRNA in the presence of chemical substance/The level of expressed mRNA in the absence of chemical substance: 0.5
Yeast gene YJL165C
  The level of expressed mRNA in the presence of chemical substance/The level of expressed mRNA in the absence of chemical substance: 2.8
Yeast gene YJR045C
  The level of expressed mRNA in the presence of chemical substance/The level of expressed mRNA in the absence of chemical substance: 3.2
Yeast gene YJR090C
  The level of expressed mRNA in the presence of chemical substance/The level of expressed mRNA in the absence of chemical substance: 1.9
Yeast gene YKL161C
  The level of expressed mRNA in the presence of chemical substance/The level of expressed mRNA in the absence of chemical substance: 1.4
Yeast gene YKL163W
  The level of expressed mRNA in the presence of chemical substance/The level of expressed mRNA in the absence of chemical substance: 0.7
Yeast gene YKL164C
  The level of expressed mRNA in the presence of chemical substance/The level of expressed mRNA in the absence of chemical substance: 0.4
Yeast gene YKL210W
  The level of expressed mRNA in the presence of chemical substance/The level of expressed mRNA in the absence of chemical substance: 3.5
Yeast gene YKR053C
  The level of expressed mRNA in the presence of chemical substance/The level of expressed mRNA in the absence of chemical substance: 0.8
Yeast gene YLL024C
  The level of expressed mRNA in the presence of chemical substance/The level of expressed mRNA in the absence of chemical substance: 2.8
Yeast gene YLL026W
  The level of expressed mRNA in the presence of chemical substance/The level of expressed mRNA in the absence of chemical substance: 11.4
Yeast gene YLL039C
  The level of expressed mRNA in the presence of chemical substance/The level of expressed mRNA in the absence of chemical substance: 3.4
Yeast gene YLL060C
  The level of expressed mRNA in the presence of chemical substance/The level of expressed mRNA in the absence of chemical substance: 13.0
Yeast gene YLR006C
  The level of expressed mRNA in the presence of chemical substance/The level of expressed mRNA in the absence of chemical substance: 1.1
Yeast gene YLR109W
  The level of expressed mRNA in the presence of chemical substance/The level of expressed mRNA in the absence of chemical substance: 2.4
Yeast gene YLR259C
  The level of expressed mRNA in the presence of chemical substance/The level of expressed mRNA in the absence of chemical substance: 1.8
Yeast gene YML007W
  The level of expressed mRNA in the presence of chemical substance/The level of expressed mRNA in the absence of chemical substance: 2.1
Yeast gene YML070W
  The level of expressed mRNA in the presence of chemical substance/The level of expressed mRNA in the absence of chemical substance: 4.5
Yeast gene YMR021C
  The level of expressed mRNA in the presence of chemical substance/The level of expressed mRNA in the absence of chemical substance: 0.6
Yeast gene YMR173W
  The level of expressed mRNA in the presence of chemical substance/The level of expressed mRNA in the absence of chemical substance: 2.7
Yeast gene YMR186W
  The level of expressed mRNA in the presence of chemical substance/The level of expressed mRNA in the absence of chemical substance: 2.6
Yeast gene YNL064C
  The level of expressed mRNA in the presence of chemical substance/The level of expressed mRNA in the absence of chemical substance: 2.4
Yeast gene YNL160W
  The level of expressed mRNA in the presence of chemical substance/The level of expressed mRNA in the absence of chemical substance: 3.5
Yeast gene YNL241C
  The level of expressed mRNA in the presence of chemical substance/The level of expressed mRNA in the absence of chemical substance: 3.4
Yeast gene YNR076W
  The level of expressed mRNA in the presence of chemical substance/The level of expressed mRNA in the absence of chemical substance: 1.3
Yeast gene YOL064C
  The level of expressed mRNA in the presence of chemical substance/The level of expressed mRNA in the absence of chemical substance: 8.7
Yeast gene YOL161C
  The level of expressed mRNA in the presence of chemical substance/The level of expressed mRNA in the absence of chemical substance: 0.7
Yeast gene YOR008C
  The level of expressed mRNA in the presence of chemical substance/The level of expressed mRNA in the absence of chemical substance: 1.9
Yeast gene YOR009W
  The level of expressed mRNA in the presence of chemical substance/The level of expressed mRNA in the absence of chemical substance: 0.4
Yeast gene YOR010C
  The level of expressed mRNA in the presence of chemical substance/The level of expressed mRNA in the absence of chemical substance: 0.6
Yeast gene YOR027W
  The level of expressed mRNA in the presence of chemical substance/The level of expressed mRNA in the absence of chemical substance: 3.5
Yeast gene YOR208W
  The level of expressed mRNA in the presence of chemical substance/The level of expressed mRNA in the absence of chemical substance: 1.5
Yeast gene YPL059W
  The level of expressed mRNA in the presence of chemical substance/The level of expressed mRNA in the absence of chemical substance: 2.0
Yeast gene YPL106C
  The level of expressed mRNA in the presence of chemical substance/The level of expressed mRNA in the absence of chemical substance: 4.9
Yeast gene YPL140C
  The level of expressed mRNA in the presence of chemical substance/The level of expressed mRNA in the absence of chemical substance: 0.9
Yeast gene YPL194W
  The level of expressed mRNA in the presence of chemical substance/The level of expressed mRNA in the absence of chemical substance: 9.6
Yeast gene YPL223C
  The level of expressed mRNA in the presence of chemical substance/The level of expressed mRNA in the absence of chemical substance: 29.4
Yeast gene YPL240C
  The level of expressed mRNA in the presence of chemical substance/The level of expressed mRNA in the absence of chemical substance: 3.5
Yeast gene YPR005C
  The level of expressed mRNA in the presence of chemical substance/The level of expressed mRNA in the absence of chemical substance: 2.8
Yeast gene YPR026W
  The level of expressed mRNA in the presence of chemical substance/The level of expressed mRNA in the absence of chemical substance: 0.9
